Laboratory results taken from US20240270762A1, “PENICILLIN-BINDING PROTEIN INHIBITORS” (priority 2021, published 2024).
≈ marks a conversion by molar mass, not a printed value.

Columns and labels:
[1] = tested on: P. aeruginosa (ΔmexAB-oprM); assay: Broth microdilution MIC in iron-depleted CAMHB (IDM); format: cell-based; conditions: Pseudomonas aeruginosa; iron-depleted CAMHB (IDM); […]; read-out: Minimum inhibitory concentration, P. aeruginosa ΔmexAB-oprM
P. aeruginosa CDC-0090 = assay: microbe, parasite or virus in culture; format: cell-based; conditions: Pseudomonas aeruginosa, CDC0090, read-out: Minimum inhibitory concentration, P. aeruginosa CDC-0090
A. baumannii ATCC 19606 = assay: microbe, parasite or virus in culture; format: cell-based; conditions: Acinetobacter baumannii, ATCC19606, read-out: MIC, A. baumannii ATCC 19606
[2] = tested on: B. humptydooensis ATCC BAA-2767; assay: microbe, parasite or virus in culture; format: cell-based; conditions: Burkholderia humptydooensis, ATCCBAA2767, read-out: Minimum inhibitory concentration (MIC), B. humptydooensis ATCC BAA-2767
A. baumannii CDC-0036 = assay: microbe, parasite or virus in culture; format: cell-based; conditions: Acinetobacter baumannii, CDC0036, read-out: MIC, A. baumannii CDC-0036
P. aeruginosa ATCC 35151 = assay: microbe, parasite or virus in culture; format: cell-based; conditions: Pseudomonas aeruginosa, ATCC35151, read-out: Minimum inhibitory concentration, P. aeruginosa ATCC 35151
A. baumannii CDC-0033 = assay: microbe, parasite or virus in culture; format: cell-based; conditions: Acinetobacter baumannii, CDC0033, read-out: MIC, A. baumannii CDC-0033
A. baumannii CDC-0045 = assay: microbe, parasite or virus in culture; format: cell-based; conditions: Acinetobacter baumannii, CDC0045, read-out: MIC, A. baumannii CDC-0045
A. baumannii ATCC 17978 = assay: microbe, parasite or virus in culture; format: cell-based; conditions: Acinetobacter baumannii, ATCC17978, read-out: MIC, A. baumannii ATCC 17978
[3] = target: T1, PBP3 from Escherichia coli (K-12) (Escherichia coli, UniProt P0AD68); assay: Bocillin-FL fluorescence polarization competition binding, E. coli PBP3
T1 construct: made in house
T1 sequence (P0AD68 1-577): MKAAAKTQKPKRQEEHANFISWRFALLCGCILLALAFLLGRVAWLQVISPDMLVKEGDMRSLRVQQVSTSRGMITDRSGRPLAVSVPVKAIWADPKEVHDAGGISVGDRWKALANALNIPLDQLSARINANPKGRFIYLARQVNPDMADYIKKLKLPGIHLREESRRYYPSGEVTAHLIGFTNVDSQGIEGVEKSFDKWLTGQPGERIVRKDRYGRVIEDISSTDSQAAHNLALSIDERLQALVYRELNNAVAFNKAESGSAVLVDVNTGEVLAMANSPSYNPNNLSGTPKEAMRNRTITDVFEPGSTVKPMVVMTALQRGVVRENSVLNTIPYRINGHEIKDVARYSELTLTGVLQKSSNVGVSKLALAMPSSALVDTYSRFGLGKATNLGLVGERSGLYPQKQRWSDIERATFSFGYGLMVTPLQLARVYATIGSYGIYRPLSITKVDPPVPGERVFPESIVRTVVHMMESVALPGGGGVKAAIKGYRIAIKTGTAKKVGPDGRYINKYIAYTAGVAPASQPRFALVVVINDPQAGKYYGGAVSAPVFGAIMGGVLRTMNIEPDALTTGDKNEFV
Method in brief: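 Purified PBP was preincubated with inhibitor (E. coli PBP3 1.5 μM, 30 min; P. aeruginosa PBP3 0.75 μM, A. baumannii PBP3 0.2 μM and PBP1a 1 μM, 15 min), then Bocillin-FL (0.1 μM; 0.05 μM for PBP1a) added and FP read up to 60 min. EC50 = 50% loss of bound probe.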

P. aeruginosa CDC-0095 = assay: microbe, parasite or virus in culture; format: cell-based; conditions: Pseudomonas aeruginosa, CDC0095, read-out: Minimum inhibitory concentration, P. aeruginosa CDC-0095
A. baumannii PBP2 = A. baumannii PBP2 (Acinetobacter baumannii, UniProt D0C8Z9); assay: Bocillin-FL competition binding via gel filtration, A. baumannii PBP2
Chain of A. baumannii PBP2 (D0C8Z9 whole entry): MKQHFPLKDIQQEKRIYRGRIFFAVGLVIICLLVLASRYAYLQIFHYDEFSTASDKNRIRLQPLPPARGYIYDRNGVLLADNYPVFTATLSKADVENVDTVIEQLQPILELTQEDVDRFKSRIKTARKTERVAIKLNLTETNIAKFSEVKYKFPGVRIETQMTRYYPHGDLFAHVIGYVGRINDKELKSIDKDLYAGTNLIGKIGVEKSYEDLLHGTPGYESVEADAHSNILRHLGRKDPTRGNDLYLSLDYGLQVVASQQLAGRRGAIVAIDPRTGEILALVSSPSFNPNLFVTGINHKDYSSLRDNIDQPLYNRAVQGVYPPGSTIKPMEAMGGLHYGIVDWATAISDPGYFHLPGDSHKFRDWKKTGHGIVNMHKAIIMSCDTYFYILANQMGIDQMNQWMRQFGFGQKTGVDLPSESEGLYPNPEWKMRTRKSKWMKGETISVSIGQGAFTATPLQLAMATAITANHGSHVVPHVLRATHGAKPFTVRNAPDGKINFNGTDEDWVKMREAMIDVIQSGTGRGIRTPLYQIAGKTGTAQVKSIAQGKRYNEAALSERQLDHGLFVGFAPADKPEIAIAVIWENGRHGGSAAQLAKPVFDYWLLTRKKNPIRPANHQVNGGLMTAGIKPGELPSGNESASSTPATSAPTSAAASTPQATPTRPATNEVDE
Method in brief: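 Competitive equilibrium binding with Bocillin-FL reporter: PBP pre-incubated with inhibitor dilutions, Bocillin-FL added, 15 min incubation. Labelled enzyme isolated by size-exclusion spin plates, fluorescence measured; EC50 obtained by fitting bound fraction against inhibitor concentration with a Hill-coefficient model.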

Row | SMILES | MIC [1] [mg/L] | MIC (P. aeruginosa CDC-0090) [mg/L] | MIC (A. baumannii ATCC 19606) [mg/L] | MIC [2] [mg/L] | MIC (A. baumannii CDC-0036) [mg/L] | MIC (P. aeruginosa ATCC 35151) [mg/L] | MIC (A. baumannii CDC-0033) [mg/L] | MIC (A. baumannii CDC-0045) [mg/L] | MIC (A. baumannii ATCC 17978) [mg/L] | EC50 [3] [µM] | MIC (P. aeruginosa CDC-0095) [mg/L] | EC50 (A. baumannii PBP2) [µM]
1 | O=C(NCCCN1CCN(C(=O)NC(C(=O)N[C@H]2Cc3ccc(F)c(C(=O)O)c3OB2O)c2cc(F)c(O)c(O)c2Cl)C(=O)C1=O)c1c(F)cc(O)cc1Cl (stereo partly drawn) [Example 421, (3R)-3-(2-(2-chloro-5-fluoro-3,4-dihydroxyphenyl)-2-(4-(3-(2-chloro-6-fluoro-4-hydroxybenzamido)propyl)-2,3-dioxopiperazine-1-carboxamido)acetamido)-7-fluoro-2-hydroxy-3,4-dihydro-2H-benzo[e][1,2]oxaborinine-8-carboxylic acid] | < 1 | < 1 | < 1 | 2 to 4 (≈ 2.46 to 4.92 µM) | 2 to 4 (≈ 2.46 to 4.92 µM) | < 1 | 2 to 4 (≈ 2.46 to 4.92 µM) | < 1 | < 1 | < 10 | 2 to 4 (≈ 2.46 to 4.92 µM) | < 10
2 | O=C(NCCCN1CCN(C(=O)N[C@@H](C(=O)N[C@H]2Cc3ccc(F)c(C(=O)O)c3OB2O)c2cc(F)c(O)c(O)c2Cl)C(=O)C1=O)c1cc(F)c(O)c(F)c1 [Example 422, (R)-3-((R)-2-(2-chloro-5-fluoro-3,4-dihydroxyphenyl)-2-(4-(3-(3,5-difluoro-4-hydroxybenzamido)propyl)-2,3-dioxopiperazine-1-carboxamido)acetamido)-7-fluoro-2-hydroxy-3,4-dihydro-2H-benzo[e][1,2]oxaborinine-8-carboxylic acid] | < 1 | 2 to 4 (≈ 2.51 to 5.03 µM) | < 1 | < 1 | 2 to 4 (≈ 2.51 to 5.03 µM) | < 1 | 2 to 4 (≈ 2.51 to 5.03 µM) | < 1 | < 1 | < 10 | < 1 | < 10
3 | O=C(NCCCN1CCN(C(=O)NC(C(=O)N[C@H]2Cc3ccc(F)c(C(=O)O)c3OB2O)c2cc(F)c(O)c(O)c2Cl)C(=O)C1=O)c1cc(O)cc(O)c1 (stereo partly drawn) [Example 423, (3R)-3-(2-(2-chloro-5-fluoro-3,4-dihydroxyphenyl)-2-(4-(3-(3,5-dihydroxybenzamido)propyl)-2,3-dioxopiperazine-1-carboxamido)acetamido)-7-fluoro-2-hydroxy-3,4-dihydro-2H-benzo[e][1,2]oxaborinine-8-carboxylic acid] | < 1 | < 1 | < 1 | < 1 | 2 to 4 (≈ 2.58 to 5.16 µM) | < 1 | 2 to 4 (≈ 2.58 to 5.16 µM) | < 1 | < 1 | < 10 | < 1 | < 10
4 | O=C(O)c1c(F)ccc2c1OB(O)[C@@H](NC(=O)C(NC(=O)N1CCN(C3CCN(C(=O)Nc4cccc(O)c4)CC3)C(=O)C1=O)c1cc(F)c(O)c(O)c1Cl)C2 (stereo partly drawn) [Example 424, (3R)-3-(2-(2-chloro-5-fluoro-3,4-dihydroxyphenyl)-2-(4-(1-((3-hydroxyphenyl)carbamoyl)piperidin-4-yl)-2,3-dioxopiperazine-1-carboxamido)acetamido)-7-fluoro-2-hydroxy-3,4-dihydro-2H-benzo[e][1,2]oxaborinine-8-carboxylic acid] | < 1 | < 1 | < 1 | 2 to 4 (≈ 2.5 to 4.99 µM) | < 1 | < 1 | < 1 | < 1 | < 1 | < 10 | < 1 | < 10
5 | O=C(O)c1c(F)ccc2c1OB(O)[C@@H](NC(=O)C(NC(=O)N1CCN(C3CCN(C(=O)c4cncc(O)c4)CC3)C(=O)C1=O)c1cc(F)c(O)c(O)c1Cl)C2 (stereo partly drawn) [Example 425, (3R)-3-(2-(2-chloro-5-fluoro-3,4-dihydroxyphenyl)-2-(4-(1-(5-hydroxynicotinoyl)piperidin-4-yl)-2,3-dioxopiperazine-1-carboxamido)acetamido)-7-fluoro-2-hydroxy-3,4-dihydro-2H-benzo[e][1,2]oxaborinine-8-carboxylic acid] | < 1 | < 1 | < 1 | < 1 | < 1 | < 1 | < 1 | < 1 | < 1 | < 10 | 2 to 4 (≈ 2.54 to 5.08 µM) | 10 to 50
6 | O=C(O)c1c(F)ccc2c1OB(O)[C@@H](NC(=O)C(NC(=O)N1CCN(C3CCN(C(=O)c4ccc(O)cc4)CC3)C(=O)C1=O)c1cc(F)c(O)c(O)c1Cl)C2 (stereo partly drawn) [Example 427, (3R)-3-(2-(2-chloro-5-fluoro-3,4-dihydroxyphenyl)-2-(4-(1-(4-hydroxybenzoyl)piperidin-4-yl)-2,3-dioxopiperazine-1-carboxamido)acetamido)-7-fluoro-2-hydroxy-3,4-dihydro-2H-benzo[e][1,2]oxaborinine-8-carboxylic acid] | < 1 | 2 to 4 (≈ 2.54 to 5.09 µM) | < 1 | < 1 | < 1 | < 1 | 2 to 4 (≈ 2.54 to 5.09 µM) | < 1 | < 1 | < 10 | 2 to 4 (≈ 2.54 to 5.09 µM) | < 10
7 | O=C(O)c1c(F)ccc2c1OB(O)[C@@H](NC(=O)C(NC(=O)N1CCN(C3CCN(S(=O)(=O)c4cccc(O)c4)CC3)C(=O)C1=O)c1cc(F)c(O)c(O)c1Cl)C2 (stereo partly drawn) [Example 428, (3R)-3-(2-(2-chloro-5-fluoro-3,4-dihydroxyphenyl)-2-(4-(1-((3-hydroxyphenyl)sulfonyl)piperidin-4-yl)-2,3-dioxopiperazine-1-carboxamido)acetamido)-7-fluoro-2-hydroxy-3,4-dihydro-2H-benzo[e][1,2]oxaborinine-8-carboxylic acid] | < 1 | < 1 | < 1 | > 128 | 2 to 4 (≈ 2.43 to 4.87 µM) | < 1 | 2 to 4 (≈ 2.43 to 4.87 µM) | < 1 | < 1 | < 10 | 2 to 4 (≈ 2.43 to 4.87 µM) | < 10
8 | O=C(O)c1c(F)ccc2c1OB(O)[C@@H](NC(=O)C(NC(=O)N1CCN(C3CCN(S(=O)(=O)c4ccc(O)cc4)CC3)C(=O)C1=O)c1cc(F)c(O)c(O)c1Cl)C2 (stereo partly drawn) [Example 429, (3R)-3-(2-(2-chloro-5-fluoro-3,4-dihydroxyphenyl)-2-(4-(1-((4-hydroxyphenyl)sulfonyl)piperidin-4-yl)-2,3-dioxopiperazine-1-carboxamido)acetamido)-7-fluoro-2-hydroxy-3,4-dihydro-2H-benzo[e][1,2]oxaborinine-8-carboxylic acid] | < 1 | < 1 | < 1 | > 128 | 2 to 4 (≈ 2.43 to 4.87 µM) | < 1 | 2 to 4 (≈ 2.43 to 4.87 µM) | < 1 | < 1 | < 10 | 2 to 4 (≈ 2.43 to 4.87 µM) | < 10
9 | O=C(NCCCN1CCN(C(=O)NC(C(=O)N[C@H]2Cc3ccc(F)c(C(=O)O)c3OB2O)c2cc(F)c(O)c(O)c2Cl)C(=O)C1=O)c1ccnc(F)c1 (stereo partly drawn) [Example 466, (3R)-3-(2-(2-chloro-5-fluoro-3,4-dihydroxyphenyl)-2-(4-(3-(2-fluoroisonicotinamido)propyl)-2,3-dioxopiperazine-1-carboxamido)acetamido)-7-fluoro-2-hydroxy-3,4-dihydro-2H-benzo[e][1,2]oxaborinine-8-carboxylic acid] | < 1 | 2 to 4 (≈ 2.62 to 5.24 µM) | < 1 | 8 to 16 (≈ 10.5 to 21 µM) | 2 to 4 (≈ 2.62 to 5.24 µM) | < 1 | 2 to 4 (≈ 2.62 to 5.24 µM) | 2 to 4 (≈ 2.62 to 5.24 µM) | < 1 | < 10 | 2 to 4 (≈ 2.62 to 5.24 µM) | 10 to 50
